Reference: PMC2694832, “Pharmacokinetics, tissue distribution and mass balance of radiolabeled dihydroartemisinin in male rats” (Malaria Journal, 2009)

Test: Pharmacokinetic study of [^14C] DHA and unchanged DHA, single i.v. dose
Format: in vivo, rats
Conditions: for fourth peak concentration of radioactivity: 6 hours; for first peak concentration of radioactivity: at one minute
Description: Traditional PK studies involve intermittent blood sampling and subsequent determination of drug concentrations in whole blood and plasma. The Culex automated blood sampler provides a way for blood withdrawal at preprogrammed intervals, which is more accurate and less labor intensive. Six rats in the PK group were implanted with a jugular vein catheter under an isofluorane anesthaesia. After the surgery, rats were allowed to recover for 96 hours with free access to food and water. The rats were dosed single i.v. at 3 mg/ml/kg with [^14C] DHA (20 μCi/kg), which was prepared as a 25% cremophore/0.9% saline solution, through the tail vein. […] PK evaluation of [^14C] DHA in plasma and whole blood, as well as unchanged DHA in plasma was conducted in individual rats.
Total radioactivity in the collected tissue samples were quantified in duplicate. Weighed tissue aliquots (~0.2 g) were digested overnight in 2 ml of Solvable® tissue solubilizer (Perkin-Elmer Life and Analytical Sciences, Boston, MA) at 50°C. Coloured samples were decolourized by adding a maximum of 0.2 ml of 30% H2O2 for 30–60 minutes. Scintillation cocktail (Hyonic Fluor; Perkin-Elmer Boston. Massachusetts, USA) was then added and radioactivity determined in a Perkin-Elmer Tri-Carb 3100 TR scintillation spectrophotometer (Packard Instrument Co., Downers Grove, Illinois, USA). Faeces and intestinal contents were thoroughly homogenized before taking aliquots. Plasma was also analysed using the HPLC-ECD system to measure the concentration of unchanged DHA, as described by Li et al.
The analysis of cold DHA in plasma was performed according to a previously described HPLC method with the following modifications: for simultaneous determination of artemisinin and DHA (artemisinin as an internal standard), the Agilent Eclipse XDB-C18 column 5 μm (4.6 × 150 mm) was used with an isocratic mobile phase consisting of 40% acetonitrile: 60% ESA Acid Metabolite A (70–4835) in the reductive mode (-400 mV) for the quantification of DHA. Validation and reproducibility were evaluated and a lower limit of quantitation (LLQ) of 2.31 ng/ml for DHA was determined. The inter- and intra-day coefficient of variation for accuracy and precision were all within ± 10%.
For pharmacokinetics, the concentration-time data of [^14C] DHA in plasma and whole blood collected during the 192 hour treatment period was fitted to a three-compartment open model using a nonlinear, extended least-square fitting procedure (WinNonlin 5.2, Pharsight Corporation, Cary, NC) using weighted (1/concentration) nonlinear regression. The area under the curve (AUC) was determined by the linear trapezoidal rule with extrapolation to infinity based on the concentration of the last time point divided by the terminal rate constant. Extrapolations to time zero were done using zero concentration for intravenous dosing and using C0 values determined from the three-compartment model equation at time zero by i.v. route. Mean clearance rate (CL) was determined by dividing the dose by the AUCinf for i.v. injection. Mean residence time (MRT) was determined by dividing the area under the first moment curve (AUMC) by the AUC. The volume of distribution at steady state (Vss) was calculated as the product of CL and MRT. The concentration-time data of unchanged DHA was fitted to a two-compartment open model. Statistical analysis was conducted with Microsoft Excel using a Student's t-test for dependent samples to compare means of paired and unpaired samples between two groups.

[1] = blood radioactivity, three-compartment, rats single i.v. 3 mg/20 μCi/kg
[2] = blood radioactivity, rats single i.v. 3 mg/20 μCi/kg
[3] = plasma radioactivity, three-compartment, rats single i.v. 3 mg/20 μCi/kg
[4] = plasma radioactivity, rats single i.v. 3 mg/20 μCi/kg
[5] = plasma radioactivity, rats single i.v. 3 mg/20 μCi/kg, listed as 14C-Dihydroartemisinin
[6] = plasma, rats i.v. 3 mg/20 μCi/kg

AUCinf. [1]: 52690 ± 4971 ng·h/mL
CL [1]: 0.7263 ± 0.5117 mL/min/kg
Cmax [1]: 3105 ± 430 ng/mL
MRT [1]: 148.57 ± 90.24 h
Vss [1]: 10.792 ± 3.771 L/kg
t1/2 – alpha [1]: 0.18 ± 0.02 h
t1/2 – beta [1]: 19.68 ± 3.88 h
t1/2 – gamma (terminal) [1]: 122.13 ± 8.73 h
Cmax at first peak [2]: 3105 ± 430 ng/mL
Cmax at fourth peak [2]: 833 ± 99 ng/mL
Cmax at second peak [2]: 1557 ± 955 ng/mL
Cmax at third peak [2]: 978 ± 164 ng/mL
Tmax [2]: 1.2 min
time of first peak [2]: 0.02 h
time of fourth peak [2]: 6 h
time of second peak [2]: 0.94 h
time of third peak [2]: 2.00 h
time of fourth peak (blood radioactivity, rats single i.v. 3 mg/20 μCi/kg, listed as 14C-Dihydroartemisinin): 6.00 h
fourth peak concentration of radioactivity (blood, rats i.v. 3 mg/20 μCi/kg): 833 ng equivalents/ml
third peak concentration of radioactivity (blood, at two hours, rats i.v. 3 mg/20 μCi/kg): 978 ng equivalents/ml
AUCinf. [3]: 21014 ± 2718 ng·h/mL
CL [3]: 2.4105 ± 0.3028 mL/min/kg
MRT [3]: 57.00 ± 2.84 h
Vss [3]: 8.216 ± 0.828 L/kg
t1/2 – alpha [3]: 0.21 ± 0.05 h
t1/2 – gamma (terminal) [3]: 75.57 ± 7.34 h
time of second peak (plasma radioactivity, rats i.v. 3 mg/20 μCi/kg): 0.183 h
Cmax at fourth peak [4]: 584 ± 65.5 ng/mL
Cmax at second peak [4]: 2373 ± 195 ng/mL
Cmax at third peak [4]: 863 ± 537 ng/mL
Tmax [4]: 1.2 min
time of first peak [4]: 0.02 h
time of fourth peak [4]: 6 h
time of second peak [4]: 0.19 h
time of third peak [4]: 1.7 h
time of fourth peak [5]: 6.00 h
time of third peak [5]: 1.70 h
fourth peak concentration of radioactivity [6]: 584 ng equivalents/ml
first peak concentration of radioactivity [6]: 3,446 ng equivalents/g
second peak concentration of radioactivity [6]: 2,373 ng equivalents/ml
third peak concentration of radioactivity [6]: 863 ng equivalents/ml
total radioactivity in the plasma fraction relative to blood total (rats i.v.): less than 25%
duration of total radioactivity (long-lasting metabolites) (rats, plasma, urine and faeces, single i.v. 3 mg/20 μCi/kg): > 192 h
time of second peak (whole blood radioactivity, rats i.v. 3 mg/20 μCi/kg): 0.933 h
first peak concentration of radioactivity (whole blood, rats i.v. 3 mg/20 μCi/kg): 3,105 ng equivalents/g
SMILES: C[C@@H]1CC[C@H]2[C@@H]([14CH3])C(O)O[C@@H]3O[C@@]4(C)CC[C@@H]1[C@]32OO4 (stereo partly drawn) [[^14C] DHA, [16-^14C] DHA]
